One assay concerns the target T1, GPX4 (Homo sapiens, UniProt P36969).
T1 sequence (P36969 1-170 isoform P36969-2): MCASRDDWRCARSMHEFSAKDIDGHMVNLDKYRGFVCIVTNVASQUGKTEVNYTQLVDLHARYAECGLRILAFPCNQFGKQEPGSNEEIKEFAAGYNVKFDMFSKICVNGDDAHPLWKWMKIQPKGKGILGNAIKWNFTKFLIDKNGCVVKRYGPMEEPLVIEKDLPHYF
Description: GPX4 activity assay in cell lysates (NADPH-coupled). The class given is biochemical. The arrangement: endogenous in cells; host or cells: A-673 cell lysate. In short, it runs like this:
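Native GPX4 in lysates of A-673 cells grown with 20 nM sodium selenite; lysate preincubated with compound 45 min at 37 °C in pH 8.0 buffer with 3 mM GSH, 0.5 mM NADPH and glutathione reductase. Reaction started with phosphatidylcholine hydroperoxide; NADPH consumption followed at 340 nm over 25 min; triplicates.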

For a further assay, the system named is HT-1080 cells. Description: Cellular dose response assay, HT-1080 with and without Fer-1. To be noted: for Selectivity: ferroptosis selectivity. Type of assay: cell-based, human. An excerpt:
HT-1080 (human [Homo sapiens] […] fibrosarcoma), A-673 (human [Homo sapiens] […] Ewing's sarcoma), and SK-HEP-1 (human [Homo sapiens] […] hepatic adenocarcinoma), cells were obtained from ATCC. Huh7 (human [Homo sapiens] […] hepatocellular carcinoma), HLF (human [Homo sapiens] […] hepatocellular carcinoma), HepG2 (human [Homo sapiens] […] hepatocellular carcinoma), cells were obtained from the Cancer Cell Bank at Columbia University Irving Medical Center. HT-1080, A-673, Huh-7, and HLF cells were grown in Dulbecco's Modified Eagle Medium (DMEM) supplemented with 10% heat inactivated fetal bovine serum (HI-FBS), 1% non-essential amino acids, and 1% penicillin streptomycin. HepG2 and SK-HEP-1 cells were grown in Eagle's Minimum Essential Medium (EMEM) supplemented with 10% HI-FBS, and 1% penicillin-streptomycin. All cells were cultured at 37° C. and 5% CO2.
HT-1080, HepG2, Huh7, HLF, and SK-HEP-1 cells were seeded into opaque white 384-well plates at 1500 cells per well then incubated at 37° C. with 5% CO2 overnight. The next day, compounds of interest were dissolved in DMSO and 12-point 2-fold dilution series were prepared with and without Fer-1. Cells were treated in triplicate (final DMSO concentration of 0.4% in all wells, including DMSO-only control wells) and incubated for a further 48 hours at 37° C. and 5% CO2. Cell viability was evaluated using CellTiter-Glo (Promega G7573) and luminescence was recorded on a Victor 5 plate reader. Data were analyzed in GraphPad Prism 9 and error bars represent standard deviation values for three technical replicates in a representative experiment.

The mark [1] stands for this setting: HT1080 + Fer-1, read-out: IC50 (uM) HT1080 + Fer-1.
Setting [2] is: HT1080, without Fer-1, read-out: IC50 (uM) HT1080.
[3] abbreviates: with Fer-1, Table 10, read-out: IC50 (μM) HT1080 + Fer-1.
Where [4] appears, read: without Fer-1, Table 10, read-out: IC50 (μM) HT1080.

Where two headings read alike, the source gives them in different places. A value given as a limit tells only on which side of the number the result lay.

The term IC50 denotes the concentration that inhibits the measured activity by half. For `COc1ccc(-c2ccc3c(C(=O)NC(C)(C)C(C)OC(=O)CCl)nn(C)c3c2)cc1Cl` (racemic) [QW-736], the “GPX4% inhibition at 2.5 μM” value at GPX4 was 95.3 ± 7.6%. For the same compound, the IC50 in the assay on HT-1080 cells (setting [1]) was 7.3 µM; with HT-1080 cells (setting [2]), 3.7 µM. Besides, the Selectivity in the assay on HT-1080 cells (HT1080 + Fer-1 vs HT1080) is reported as 2.0.
Turning to `Cn1nc(C(=O)NC(C)(C)COC(=O)CCl)c2ccc(-c3cc4ccccc4s3)cc21` [QW-470], at GPX4 (5 μM), the “GPX4% inhibition at 5 μM” value is 75.0 ± 5.6%. Besides, the IC50 turned out to be 17.3 µM with HT-1080 cells (setting [1]) and 1.7 µM in the assay with HT-1080 cells (setting [2]). In addition, the Selectivity in the assay on HT-1080 cells (HT1080 + Fer-1 vs HT1080) is reported as 10.2.
As to `CCOCCOc1ccc(-c2ccc3c(C(=O)NC(C)(C)COC(=O)CCl)nn(C)c3c2)cc1` [QW-605], the “GPX4% inhibition at 2.5 μM” value at GPX4 is given as 60.9 ± 15.7%. The IC50 was determined as 17.5 µM with HT-1080 cells (setting [1]) and 1.9 µM in the assay with HT-1080 cells (setting [2]). Moreover, in the assay with HT-1080 cells (HT1080 + Fer-1 vs HT1080), the Selectivity amounted to 9.2.
Consider `CC(C)(CNC(=O)CCl)NC(=O)c1nn(Cc2cc(Cl)cc(Cl)c2)c2cc(-c3ccc(N4CCOCC4)c(Cl)c3)ccc12` [QW-929], for which the Selectivity in the assay on HT-1080 cells (IC50 with Fer-1 / IC50) is on record as 2.9. Further, the IC50 in the assay with HT-1080 cells (setting [3]) is 4.6 µM; in the assay on HT-1080 cells (setting [4]), 1.6 µM.
Taken in the same sequence, the figures for `COc1ccc(-c2ccc3c(C(=O)NC(C)(C)COC(=O)CCl)nn(Cc4cc(C(F)(F)F)cc(C(F)(F)F)c4)c3c2)cc1Cl` [QW-930] were 0.6, 13 µM and 21.8 µM.
Taken in the same sequence, the figures for `CC(C)(COC(=O)CCl)NC(=O)c1nn(Cc2cc(C(F)(F)F)cc(C(F)(F)F)c2)c2cc(-c3ccc(N4CCOCC4)c(Cl)c3)ccc12` [QW-931] were 6.6, 34.3 µM and 5.2 µM.
Take `CC(C)(COC(=O)CCl)NC(=O)c1c2ccc(-c3ccc(N4CCOCC4)c(Cl)c3)cc2nn1Cc1cc(Cl)cc(Cl)c1` [QW-937]: the “fold reduced activity relative to QW-852” value in the assay with HT-1080 cells (HT1080) was 25 fold. In addition, the Selectivity in the assay with HT-1080 cells (IC50 with Fer-1 / IC50) is reported as 2.7. The results for the IC50 in the assay on HT-1080 cells (read-out: IC50 HT1080) and with HT-1080 cells (setting [3]) were 1 µM and 2.7 µM, respectively.
Turning to `CC(C)(COC(=O)CCl)NC(=O)c1c2ccc(-c3ccc(N4CCOCC4)c(Cl)c3)cc2nn1Cc1cc(C(F)(F)F)cc(C(F)(F)F)c1` [QW-945], the Selectivity in the assay with HT-1080 cells (IC50 with Fer-1 / IC50) was 4.0. In addition, the results for the IC50 in the assay with HT-1080 cells (setting [3]) and with HT-1080 cells (setting [4]) were 10.7 µM and 2.7 µM, respectively.
On the same counts, the results for `COc1ccc(-c2ccc3c(C(=O)NC(C)(C)COC(=O)CCl)nn(Cc4cc(Cl)ccc4Cl)c3c2)cc1Cl` [QW-946] are 133.4, 454 µM and 3.4 µM.
Taken in the same sequence, the figures for `CC(C)(COC(=O)CCl)NC(=O)c1nn(Cc2cc(Cl)cc(Cl)c2)c2cc(Br)ccc12` [QW-954] were 2.0, 11.8 µM and 5.9 µM.
`COc1ccc(-c2ccc3c(C(=O)NC(C)(C)COC(=O)CCl)nn(Cc4cccc(Cl)c4Cl)c3c2)cc1Cl` [QW-958] gave a Selectivity in the assay with HT-1080 cells (IC50 with Fer-1 / IC50) of 13.7. The IC50 in the assay on HT-1080 cells (setting [3]) stood at 31.6 µM; with HT-1080 cells (setting [4]), 2.3 µM.
On the same counts, the results for `CC(C)(COC(=O)CCl)NC(=O)c1nn(Cc2cccc(Cl)c2Cl)c2cc(-c3ccc(N4CCOCC4)c(Cl)c3)ccc12` [QW-959] are 508.5, 610 µM and 1.2 µM.
As for `CC(C)(COC(=O)CCl)NC(=O)c1nn(Cc2ccc(Cl)c(Cl)c2)c2cc(-c3ccc(N4CCOCC4)c(Cl)c3)ccc12` [QW-968], the IC50 in the assay on HT-1080 cells (setting [3]) and with HT-1080 cells (setting [4]) was above 40 µM each time.
`COc1ccc(-c2ccc3c(C(=O)NC(C)(C)COC(=O)CCl)n(Cc4ccc(Cl)c(Cl)c4)nc3c2)cc1Cl` [QW-972] gave a Selectivity in the assay with HT-1080 cells (IC50 with Fer-1 / IC50) of 1.5. Further, the IC50 with HT-1080 cells (setting [3]) was 5.5 µM; in the assay with HT-1080 cells (setting [4]), 3.6 µM.
On the same counts, the results for `CC(C)(COC(=O)CCl)NC(=O)c1c2ccc(-c3ccc(N4CCOCC4)c(Cl)c3)cc2nn1Cc1ccc(Cl)c(Cl)c1` [QW-973] are 1.4, 5.8 µM and 4.2 µM.
Taken in the same sequence, the figures for `COc1ccc(-c2ccc3c(c2)c(C(=O)NC(C)(C)COC(=O)CCl)nn3Cc2cc(Cl)cc(Cl)c2)cc1Cl` [QW-979] were 1.8, 12.5 µM and 6.9 µM.

For the origin of these results see US20250248979A1, “NOVEL GPX4 INHIBITORS AND USES THEREOF” (THE TRUSTEES OF COLUMBIA UNIVERSITY IN THE CITY OF NEW YORK, priority 2022, published 2025).
